Source: PubChem BioAssay (NCI)
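Each compound was tested at five concentrations against cells in 96-well plates for 48 hours. The concentration for 50% growth inhibition is given as GI50. TGI denotes the concentration required for complete inhibition of growth.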

Experiments:
Assay in all cases: NCI-60 cell line screen, 48 h
[1] = system: ACHN renal
[2] = system: CCRF-CEM leukemia
[3] = system: HCC-2998 colon
[4] = system: HCT-15 colon
[5] = system: KM12 colon
[6] = system: KM20L2 colon
[7] = system: LXFL 529 NSCLC
[8] = system: RXF 393 renal
[9] = system: SR leukemia
[10] = system: OVCAR-3 ovarian

Row | Structure (SMILES) | TGI [1] [µM] | TGI [2] [µM] | TGI [3] [µM] | TGI [4] [µM] | TGI [5] [µM] | TGI [6] [µM] | TGI [7] [µM] | TGI [8] [µM] | TGI [9] [µM] | GI50 [1] [µM] | GI50 [2] [µM] | GI50 [3] [µM] | GI50 [4] [µM] | GI50 [5] [µM] | GI50 [10] [µM] | TGI [10] [µM] | GI50 [8] [µM] | GI50 [9] [nM]
1 | CC(=O)Nc1ccc(/C=C2\N=C(c3ccccc3)OC2=O)cc1 | > 100 | > 100 | > 100 | > 100 | > 100 | > 100 | > 100 | > 100 | – | – | – | – | – | – | – | – | – | –
2 | CN(C)C(=O)NC(=S)N(C)C | > 100 | > 100 | > 100 | > 100 | > 100 | > 100 | > 100 | > 100 | > 100 | – | – | – | – | – | – | – | – | –
3 | C[C@@H](NC(=O)c1ncnc(N)c1Cl)c1ncc(C(=O)Nc2cc(C(F)(F)F)c(Cl)cn2)s1 | > 100 | > 100 | 40.7 | > 100 | > 84.6 | – | – | 68.7 | 64.5 | 15.7 | 25.4 | 13.7 | 21.9 | 21.3 | 24.6 | 70 | 24.2 | 15300
4 | CCCCCCCCCC(CCCC(O)CC(=O)O)OC1OC(COC2OC(C)C(OC(C)=O)C(O)C2O)C(O)C(O)C1OC1OC(CO)C(O)C(O)C1OC1OC(C)C(OC(=O)CC(C)C)C(O)C1O (stereo not given) | > 35 | > 35 | > 35 | > 35 | > 35 | – | – | > 35 | > 35 | > 35 | > 35 | > 35 | > 35 | > 35 | > 35 | > 35 | > 35 | > 35000
5 | Clc1ccc2ncc(-c3cccc(NC4CNC4)n3)n2c1 | > 100 | 72.7 | 68.2 | > 100 | > 100 | – | – | 11.6 | > 100 | 1.91 | 3.62 | 12.9 | 5.39 | 0.686 | 18.9 | > 100 | 1.45 | 1970
6 | CCOc1ccc(OCC)c([P+](c2ccccc2)(c2ccccc2)c2ccccc2)c1 | 10.5 | 14.7 | 11 | – | 10.1 | 4.13 | 10.4 | 15.7 | – | – | – | – | – | – | – | 2.74 | – | –
7 | O=C(Nc1ccccc1C(F)(F)F)c1ccc(NC2=C(Cl)C(=O)N(Cc3ccccc3)C2=O)cc1 | > 100 | 12.7 | 35.6 | > 100 | > 100 | – | – | 37.7 | 3.86 | 33.7 | 2.95 | 16.3 | 4.19 | > 100 | 13.1 | 76.9 | 13.8 | 1850
8 | Cc1nc(-c2cnc(NC(C)C)n(C)c2=O)ccc1Oc1ccnc(-c2cnn(C)c2)c1 | > 100 | > 100 | > 100 | > 100 | > 100 | – | – | 44 | 29.1 | 18.9 | 12.1 | 24 | 5.51 | 5.91 | 16.1 | > 100 | 10.7 | 2990
